Publication PMC4925669, “Phytochemicals Mediate the Expression and Activity of OCTN2 as Activators of the PPARγ/RXRα Pathway” (Frontiers in Pharmacology, 2016)

Target: T1, PPARγ (Homo sapiens, UniProt P37231)
T1 construct: gene PPARG; pcDNA3.1-PPARγ; with RXRα
T1 sequence (P37231 1-505): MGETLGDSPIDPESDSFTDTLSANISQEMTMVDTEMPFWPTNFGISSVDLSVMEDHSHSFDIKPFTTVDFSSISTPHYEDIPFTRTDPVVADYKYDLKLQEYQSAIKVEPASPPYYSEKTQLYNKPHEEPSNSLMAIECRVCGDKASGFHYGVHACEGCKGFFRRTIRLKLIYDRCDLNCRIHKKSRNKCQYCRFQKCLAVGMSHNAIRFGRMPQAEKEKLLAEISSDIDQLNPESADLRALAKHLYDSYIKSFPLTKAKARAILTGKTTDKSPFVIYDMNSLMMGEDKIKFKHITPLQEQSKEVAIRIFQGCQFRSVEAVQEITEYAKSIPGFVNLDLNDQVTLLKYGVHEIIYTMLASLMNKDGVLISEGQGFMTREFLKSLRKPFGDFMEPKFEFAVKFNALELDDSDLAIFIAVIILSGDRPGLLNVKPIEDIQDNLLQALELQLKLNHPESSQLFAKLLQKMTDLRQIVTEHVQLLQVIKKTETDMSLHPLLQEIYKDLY
T1 sequence (P19793 1-462 partner): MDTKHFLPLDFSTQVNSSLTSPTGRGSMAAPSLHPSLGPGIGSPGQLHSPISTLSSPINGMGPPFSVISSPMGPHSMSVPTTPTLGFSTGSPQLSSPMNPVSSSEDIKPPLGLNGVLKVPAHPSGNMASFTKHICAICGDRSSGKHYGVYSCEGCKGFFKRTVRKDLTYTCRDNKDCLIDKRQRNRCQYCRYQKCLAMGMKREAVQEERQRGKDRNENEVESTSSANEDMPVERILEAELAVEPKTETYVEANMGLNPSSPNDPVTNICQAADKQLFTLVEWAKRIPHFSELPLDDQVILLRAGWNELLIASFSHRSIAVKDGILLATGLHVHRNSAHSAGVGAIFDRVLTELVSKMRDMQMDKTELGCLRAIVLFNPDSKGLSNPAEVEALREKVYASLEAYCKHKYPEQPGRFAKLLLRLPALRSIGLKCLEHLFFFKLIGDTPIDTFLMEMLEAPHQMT
Experiment: PPRE/OCTN2 dual-luciferase transactivation assay in COS-7 cells transfected with PPARγ/RXRα, blocked by GW9662
Format: cell-based

In the case of `O=c1c(O)c(-c2ccc(O)cc2)oc2cc(O)cc(O)c12` [Kaempferol], the “Relative RFU fold change (% of blank)” value was 189.89 ± 5.98 % of blank.
